The record followed here is PubChem BioAssay (NCI).

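Five compound concentrations were applied to cells in 96-well plates for 48 hours; endpoints were derived by simple linear interpolation of the resulting dose-response curve. GI50 is the concentration that inhibits growth by half. TGI: total growth inhibition.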

Common to all, as to experiment: NCI tumour cell line growth inhibition, 48 h
Assay [1] deals with HS 578T breast.
In assay [2] the test system is NCI-H226 lung.
Assay [3] concerns M14 melanoma.
In assay [4] the test system is OVCAR-5 ovarian.
The subject of assay [5] is MDA-MB-435.
The subject of assay [6] is SK-OV-3 ovarian.
Assay [7] deals with A498 renal.
Assay [8] deals with SF-539 CNS.
Assay [9] has as its system SNB-19 CNS.
The subject of assay [10] is RXF 393 renal.

On to `N#CC1C=Cc2c(ccc3ccccc23)N1C(=O)c1ccccc1` (centres undefined), for which the GI50 in [1] was 1.31 µM; in assay [2], 1.34 µM; in assay [3] it was 0.209 µM; in assay [4] it was 0.519 µM; in assay [5] it was 0.0383 µM; in assay [6], 0.311 µM. The GI50 in [7] is 0.139 µM; in assay [8], 0.238 µM; in assay [9], 0.524 µM. Moreover, the TGI in assay [2] was over 100 µM; in [3] it was over 100 µM; in assay [4], over 100 µM; in assay [5] it was 0.664 µM; in assay [6], 29.7 µM; in assay [7] it was 2.48 µM. In addition, the TGI in assay [9] was over 100 µM.
On to `COC(=O)C(C)NC(=O)c1ccccc1I(OS(=O)(=O)C(F)(F)F)c1ccccc1` (centres undefined), for which the GI50 in [1] is 19.6 µM; in [2] it was 17.1 µM; in assay [3] it was 1.23 µM; in [4], 16.9 µM; in assay [5] it was over 41.3 µM; in [6], 23.6 µM. Also, the values for the GI50 in [8], in assay [10] and in assay [9] were 22.7 µM, 17.7 µM and 26.3 µM, respectively. Also, the TGI is 47.9 µM in assay [1]; 36 µM in [2]; 32.8 µM in [3]; 36.7 µM in [4]; over 57.1 µM in [5]; 56.5 µM in [6]. Further, the TGI in assay [8] was 45.6 µM; in assay [10], 41.6 µM; in [9] it was over 65.4 µM.
Turning to `COc1cc(NC(=O)C2=C(N3CCOCC3)/C(=C/c3ccc(Cl)cc3)CC2)cc(OC)c1OC`, the GI50 in assay [1] is 3.97 µM; in [2], 34.3 µM; in assay [3], over 100 µM; in assay [4], over 100 µM; in [5], over 100 µM; in assay [6] it was 21.7 µM. The GI50 in assay [7] is 4.97 µM; in assay [8] it was 36 µM; in assay [9], 28.8 µM. Further, the TGI was 40.7 µM in assay [1]; over 100 µM in assay [2]; over 100 µM in assay [3]; over 100 µM in assay [4]; over 100 µM in [5]; 62.8 µM in assay [6]. In addition, the TGI in assay [7] was 27.7 µM; in assay [8], over 100 µM; in assay [9], 95.1 µM.
Consider `Oc1c(CN2CCN(c3ccccc3)CC2)cc(Br)c2cccnc12`, for which the TGI in assay [1] is over 88.6 µM; in assay [3], over 42 µM; in assay [4] it was over 67.4 µM; in assay [5] it was over 100 µM; in assay [6], 26.8 µM; in assay [7], over 100 µM. In addition, the figures for the TGI in assay [8], in [10] and in assay [9] were over 28.6 µM, 13.5 µM and over 100 µM, respectively.
Consider `O=C(CCc1ccc(O)cc1)N/N=C/c1cc(Br)ccc1O`, for which the GI50 in [1] is 10.1 µM; in [3], 2.75 µM; in [4], 6.77 µM; in assay [5], 6.31 µM; in [6] it was 6.35 µM; in assay [7], 9.81 µM. For the same molecule, the GI50 in [8] was 4.03 µM; in assay [10] it was 6.51 µM; in [9], 6.51 µM. Also, the TGI is over 100 µM in assay [1]; 17.4 µM in assay [3]; over 100 µM in assay [4]; over 100 µM in assay [5]; over 100 µM in [6]; 49.6 µM in [7]. The TGI in assay [8] is 35.4 µM; in [10], over 100 µM; in assay [9], over 100 µM.
With `O=C(O)Cn1cc([N+](=O)[O-])c(=O)c2ccccc21`, the TGI in [1], in assay [2], in assay [3], in assay [4], in assay [5] and in assay [6] was over 100 µM each time. Also, the TGI in assay [7], in [8] and in [9] was over 100 µM throughout.
Consider `COc1cccc2c1n([O-])c1cccc(OC)c1[n+]2=O`, for which the GI50 was 8.87 µM in assay [1]; 6.1 µM in [2]; 7.02 µM in assay [3]; 9.71 µM in assay [4]; 10.9 µM in [5]; 10.5 µM in assay [6]. Also, the figures for the GI50 in assay [7], in assay [8] and in assay [10] were 16.4 µM, 7.85 µM and 19.3 µM, respectively. For the same molecule, the TGI in assay [1] amounted to 60.1 µM; in assay [2], 28.8 µM; in [3] it was 26.5 µM; in assay [4], 27.3 µM; in [5], 36.2 µM; in assay [6], 28.9 µM. Moreover, the TGI in assay [7], in [8] and in [10] was over 100 µM in each case.
As for `Cc1ccc([C@]2(C)CC[C@H](C)/C2=C\Br)c(O)c1`, the GI50 in [1] was 2.95 µM; in assay [3], 3.51 µM; in [4] it was 6.3 µM; in assay [5], 1.86 µM; in assay [6], 2.45 µM; in assay [7], 5.31 µM. The values for the GI50 in assay [8], in [10] and in assay [9] were 1.85 µM, 3.08 µM and 4.6 µM, respectively. For the same molecule, the TGI in assay [1] stood at 15.7 µM; in assay [3] it was 13.3 µM; in assay [4], 18.6 µM; in [5] it was 4.82 µM; in [6], 7.03 µM; in [7] it was 20.3 µM. The TGI in [8] was 4.17 µM; in assay [10], 12.4 µM; in [9] it was 18.9 µM.
